Measurements reported in PubChem BioAssay (NCI).
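Results reflect a 48-hour exposure of cells in 96-well plates to compound at five concentrations. Definition used: TGI = concentration required for complete inhibition of growth.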

Experiments:
Assay in all cases: NCI tumour cell line growth inhibition, 48 h
[1] = system: 786-0 renal
[2] = system: A498 renal
[3] = system: A549 NSCLC
[4] = system: ACHN renal
[5] = system: BT-549 breast
[6] = system: CAKI-1 renal
[7] = system: CCRF-CEM leukemia
[8] = system: COLO 205 colon
[9] = system: DU-145 prostate
[10] = system: EKVX NSCLC
[11] = system: HCC-2998 colon
[12] = system: HCT-116 colon
[13] = system: HCT-15 colon
[14] = system: HL-60(TB) leukemia
[15] = system: HOP-62 NSCLC
[16] = system: HOP-92 NSCLC
[17] = system: HS 578T breast
[18] = system: HT29 colon
[19] = system: IGROV1 ovarian
[20] = system: K-562 leukemia
[21] = system: KM12 colon
[22] = system: LOX IMVI melanoma
[23] = system: M14 melanoma
[24] = system: MCF7 breast
[25] = system: MDA-MB-231 breast
[26] = system: MDA-MB-435
[27] = system: MDA-N
[28] = system: MOLT-4 leukemia
[29] = system: NCI-H226 lung
[30] = system: NCI-H23 lung
[31] = system: NCI-H460 lung
[32] = system: NCI-H522 lung
[33] = system: NCI/ADR-RES ovarian
[34] = system: OVCAR-3 ovarian
[35] = system: OVCAR-4 ovarian
[36] = system: OVCAR-5 ovarian
[37] = system: OVCAR-8 ovarian
[38] = system: PC-3 prostate
[39] = system: RPMI-8226 leukemia
[40] = system: RXF 393 renal
[41] = system: SF-268 CNS
[42] = system: SF-295 CNS
[43] = system: SF-539 CNS
[44] = system: SK-MEL-2 melanoma
[45] = system: SK-MEL-28 melanoma
[46] = system: SK-MEL-5 melanoma
[47] = system: SK-OV-3 ovarian
[48] = system: SN12C renal
[49] = system: SNB-19 CNS
[50] = system: SNB-75 CNS
[51] = system: SR leukemia
[52] = system: SW-620 colon
[53] = system: T-47D breast
[54] = system: TK-10 renal
[55] = system: U251 CNS
[56] = system: UACC-257 melanoma
[57] = system: UACC-62 melanoma
[58] = system: UO-31 renal
[59] = system: MALME-3M melanoma

COC(=O)[C@]12CC[C@H]3CC[C@H]([C@H]31)[C@H](c1ccccc1)N2
TGI [1]: 29.4 µM | TGI [2]: 31.9 µM | TGI [3]: 37.3 µM | TGI [4]: 31.4 µM | TGI [5]: 34.3 µM | TGI [6]: 41.4 µM | TGI [7]: 95.9 µM | TGI [8]: 30.8 µM | TGI [9]: 47.8 µM | TGI [10]: 33.1 µM | TGI [11]: 26.8 µM | TGI [12]: 29.5 µM | TGI [13]: 38.4 µM | TGI [14]: 47.6 µM | TGI [15]: 33.3 µM | TGI [16]: 30.3 µM | TGI [17]: 49.8 µM | TGI [18]: 29.5 µM | TGI [19]: 34.3 µM | TGI [20]: 53.4 µM | TGI [21]: 39.8 µM | TGI [22]: 32.1 µM | TGI [23]: 32.7 µM | TGI [24]: 31.2 µM | TGI [25]: 30.6 µM | TGI [26]: 34.6 µM | TGI [27]: 34.9 µM | TGI [28]: 56.5 µM | TGI [29]: 31.6 µM | TGI [30]: 37.2 µM | TGI [31]: 31.2 µM | TGI [32]: 37.7 µM | TGI [33]: 33.4 µM | TGI [34]: 29.3 µM | TGI [35]: 31.6 µM | TGI [36]: 31.4 µM | TGI [37]: 37 µM | TGI [38]: 38.7 µM | TGI [39]: 47.9 µM | TGI [40]: 30.9 µM | TGI [41]: 41.5 µM | TGI [42]: 32.3 µM | TGI [43]: 30.6 µM | TGI [44]: 28.8 µM | TGI [45]: 52.2 µM | TGI [46]: 27.9 µM | TGI [47]: 77.7 µM | TGI [48]: 29.5 µM | TGI [49]: 47.3 µM | TGI [50]: 58.1 µM | TGI [51]: 38.8 µM | TGI [52]: 53.2 µM | TGI [53]: 50.3 µM | TGI [54]: 32 µM | TGI [55]: 31.4 µM | TGI [56]: 29.6 µM | TGI [57]: 29.1 µM | TGI [58]: 31.2 µM

Nc1nc2c(c(=O)[nH]1)C(c1ccccc1)CC(=O)N2 (centres undefined)
TGI [1]: > 100 µM | TGI [2]: > 100 µM | TGI [3]: > 100 µM | TGI [4]: > 100 µM | TGI [5]: > 100 µM | TGI [8]: > 100 µM | TGI [9]: > 100 µM | TGI [10]: > 100 µM | TGI [11]: > 100 µM | TGI [12]: > 100 µM | TGI [13]: > 100 µM | TGI [15]: > 100 µM | TGI [17]: > 100 µM | TGI [18]: > 100 µM | TGI [19]: > 100 µM | TGI [20]: > 100 µM | TGI [21]: > 100 µM | TGI [22]: > 100 µM | TGI [23]: > 100 µM | TGI [59]: > 100 µM | TGI [24]: > 100 µM | TGI [25]: > 100 µM | TGI [26]: > 100 µM | TGI [27]: > 100 µM | TGI [28]: > 100 µM | TGI [29]: > 100 µM | TGI [30]: > 100 µM | TGI [31]: > 100 µM | TGI [33]: > 100 µM | TGI [34]: > 100 µM | TGI [35]: > 100 µM | TGI [36]: > 100 µM | TGI [37]: > 100 µM | TGI [38]: > 100 µM | TGI [39]: > 100 µM | TGI [41]: > 100 µM | TGI [42]: > 100 µM | TGI [43]: > 100 µM | TGI [44]: > 100 µM | TGI [45]: > 100 µM | TGI [46]: > 100 µM | TGI [47]: > 100 µM | TGI [48]: > 100 µM | TGI [49]: > 100 µM | TGI [50]: > 100 µM | TGI [51]: > 100 µM | TGI [52]: > 100 µM | TGI [53]: > 100 µM | TGI [54]: > 100 µM | TGI [55]: > 100 µM | TGI [56]: > 100 µM | TGI [57]: > 100 µM | TGI [58]: > 100 µM

O=c1[nH]/c(=C/c2ccc(OCc3ccccc3)cn2)c(=O)[nH]/c1=C/c1ccc(F)cc1
TGI [1]: 30 µM | TGI [2]: > 100 µM | TGI [3]: > 50 µM | TGI [4]: > 76.2 µM | TGI [5]: > 58.5 µM | TGI [6]: > 100 µM | TGI [7]: > 44.7 µM | TGI [8]: 6.75 µM | TGI [9]: > 34.8 µM | TGI [10]: > 93.6 µM | TGI [11]: > 40.3 µM | TGI [12]: > 100 µM | TGI [13]: > 42.6 µM | TGI [15]: > 35.5 µM | TGI [16]: > 37.7 µM | TGI [17]: 15.7 µM | TGI [18]: > 32.4 µM | TGI [19]: 13.1 µM | TGI [20]: > 36.4 µM | TGI [21]: > 40.9 µM | TGI [22]: > 100 µM | TGI [23]: > 32.1 µM | TGI [59]: > 51.8 µM | TGI [24]: > 100 µM | TGI [25]: > 51.3 µM | TGI [26]: 0.687 µM | TGI [27]: 0.259 µM | TGI [28]: > 34.4 µM | TGI [29]: > 44.3 µM | TGI [30]: > 50.4 µM | TGI [31]: > 34.2 µM | TGI [32]: 9.06 µM | TGI [33]: > 37 µM | TGI [34]: 1.42 µM | TGI [35]: > 82.1 µM | TGI [36]: > 100 µM | TGI [37]: > 47 µM | TGI [38]: > 45.4 µM | TGI [39]: 10.8 µM | TGI [40]: 1.95 µM | TGI [41]: > 40.7 µM | TGI [42]: > 27.5 µM | TGI [43]: 19.3 µM | TGI [44]: > 52.2 µM | TGI [45]: > 100 µM | TGI [46]: > 100 µM | TGI [47]: > 37.8 µM | TGI [48]: > 50.3 µM | TGI [49]: > 34.2 µM | TGI [50]: 4.73 µM | TGI [51]: 1.29 µM | TGI [52]: > 44.6 µM | TGI [53]: > 55.6 µM | TGI [54]: > 39.7 µM | TGI [55]: > 35.7 µM | TGI [56]: 58.4 µM | TGI [57]: > 50.2 µM | TGI [58]: > 60.1 µM
